These results are taken from US20150141381A1, “TETRACYCLINE COMPOUNDS HAVING TARGET THERAPEUTIC ACTIVITIES” (Paratek Pharmaceuticals, Inc., priority 2001, published 2015).

Like-named read-outs stand apart in the source and are kept apart here.

The test system of assay [1] is E. coli mL308 225. Description: In Vitro Anti-Bacterial Activity Assay (MIC), gram negative. Format: cell-based. Particulars: for MIC: Escherichia coli, ML308225, 18 h.
The test system of assay [2] is S. aureus RN450. Description: In Vitro Anti-Bacterial Activity Assay (MIC), gram positive. The assay is classed as cell-based. Particulars: for MIC: Staphylococcus aureus, RN450, 18 h.
[3] abbreviates: MIC class, Table 3, read-out: Antibiotic Activity Gram −.
Where [4] appears, read: MIC class, Table 3, read-out: Antibiotic Activity Gram +.
Where [5] appears, read: gram negative bacteria, read-out: Antibiotic Activity Gram − (MIC).
[6] abbreviates: gram positive bacteria, read-out: Antibiotic Activity Gram + (MIC).

For the compound `CC(C)CNCc1cc(N(C)C)c2c(c1O)C(=O)C1=C(O)[C@]3(O)C(=O)C(C(N)=O)=C(O)[C@@H](N(C)C)[C@@H]3C[C@@H]1C2` [drawing 3475], the “Antibiotic Activity Gram − (MIC)” value in assay [1] (gram negative bacteria) is “* (compounds with an MIC of greater than 4 μg/ml are indicated with *)”. Moreover, the “Antibiotic Activity Gram + (MIC)” value in assay [2] (gram positive bacteria) was “* (compounds with an MIC of greater than 4 μg/ml are indicated with *)”.

In the case of `COC(=O)C#Cc1cc(N(C)C)c2c(c1O)C(=O)C1=C(O)[C@]3(O)C(=O)C(C(N)=O)=C(O)C(N(C)C)[C@@H]3C[C@@H]1C2` (some centres unmarked) [CY], the MIC in assay [1] (setting [3]) is greater than 4 µg/mL; in assay [2] (setting [4]) it was less than 4 µg/mL.

Consider `CCN(CC)c1ccc(-c2c[nH]c(Nc3ccc4c(c3O)C(=O)C3=C(O)[C@]5(O)C(=O)C(C(N)=O)=C(O)[C@@H](N(C)C)[C@@H]5[C@@H](O)[C@@H]3[C@H]4C)n2)cc1`, for which the MIC in assay [1] (MIC class, Table 3 (Continued), read-out: Gram− activity) was greater than 4 µg/mL; in assay [2] (MIC class, Table 3 (Continued), read-out: Gram+ activity), less than 4 µg/mL.

For the compound `CCN(Cc1ccccc1)Cc1cc(N(C)C)c2c(c1O)C(=O)C1=C(O)[C@]3(O)C(=O)C(C(N)=O)=C(O)[C@@H](N(C)C)[C@@H]3C[C@@H]1C2`, the MIC in assay [1] (setting [5]) and in assay [2] (setting [6]) was less than 4 µg/mL in each case.

On to `COC(=O)c1cc(NC(=O)c2ccno2)cc(-c2ccc(O)c3c2C[C@H]2C[C@H]4[C@H](N(C)C)C(O)=C(C(N)=O)C(=O)[C@@]4(O)C(O)=C2C3=O)c1` [IK], for which the MIC is greater than 4 µg/mL in assay [1] (setting [3]) and less than 4 µg/mL in assay [2] (setting [4]).

With `COc1ccc(C#Cc2cc(C#Cc3ccc(OC)cc3)c3c(c2O)C(=O)C2=C(O)[C@]4(O)C(=O)C(C(N)=O)=C(O)[C@@H](N(C)C)[C@@H]4C[C@@H]2C3)cc1` [BS], the MIC in assay [1] (setting [3]) and in assay [2] (setting [4]) was greater than 4 µg/mL in each case.

On to `CN(C)Cc1ccc(-c2ccc(O)c3c2C[C@H]2C[C@H]4[C@H](N(C)C)C(O)=C(C(N)=O)C(=O)[C@@]4(O)C(O)=C2C3=O)o1` [HL], for which the MIC in assay [1] (setting [3]) and in assay [2] (setting [4]) was less than 4 µg/mL in each case.

As to `CC(=O)c1ccc(O)c2c1C[C@H]1C[C@H]3[C@H](N(C)C)C(O)=C(C(N)=O)C(=O)[C@@]3(O)C(O)=C1C2=O` [BJ], the MIC in assay [1] (setting [3]) and in assay [2] (setting [4]) was less than 4 µg/mL in each case.

Turning to `COC1CCN(Cc2cc(N(C)C)c3c(c2O)C(=O)C2=C(O)[C@]4(O)C(=O)C(C(N)=O)=C(O)[C@@H](N(C)C)[C@@H]4C[C@@H]2C3)CC1`, the MIC in assay [1] (setting [5]) and in assay [2] (setting [6]) was less than 4 µg/mL throughout.

In the case of `CCc1cc(CNC(=O)CN(C)C)c(O)c2c1C[C@H]1C[C@H]3[C@@H](N(C)C)C(O)=C(C(N)=O)C(=O)[C@@]3(O)C(O)=C1C2=O` [JL], the MIC in assay [1] (setting [3]) is greater than 4 µg/mL; in assay [2] (setting [4]), less than 4 µg/mL.

With `CN(C)c1cc(CN2CCCCCC2)c(O)c2c1C[C@H]1C[C@H]3[C@H](N(C)C)C(O)=C(C(N)=O)C(=O)[C@@]3(O)C(O)=C1C2=O`, the MIC in assay [1] (setting [5]) and in assay [2] (setting [6]) was less than 4 µg/mL throughout.

`CN(C)c1cc(NS(=O)(=O)c2ccccc2)c(O)c2c1C[C@H]1C[C@H]3[C@H](N(C)C)C(O)=C(C(N)=O)C(=O)[C@@]3(O)C(O)=C1C2=O` [AE]: the MIC in assay [1] (setting [3]) and in assay [2] (setting [4]) was less than 4 µg/mL in each case.

For `CN(C)[C@@H]1C(O)=C(C(N)=O)C(=O)[C@@]2(O)C(O)=C3C(=O)c4c(O)ccc(CNC(=O)C(C)(C)C)c4C[C@H]3C[C@@H]12`, the MIC in assay [1] (setting [5]) was greater than 4 µg/mL; in assay [2] (setting [6]), less than 4 µg/mL.

For the compound `C[C@H]1c2ccc(N)c(O)c2C(=O)C2=C(O)[C@]3(O)C(=O)C(C(N)=O)=C(O)[C@@H](N(C)C)[C@@H]3[C@@H](O)[C@@H]21`, the MIC in assay [1] (setting [5]) and in assay [2] (setting [6]) was greater than 4 µg/mL each time.

For `CN(C)c1cc(NC2CC(C)(C)NC(C)(C)C2)c(O)c2c1C[C@H]1C[C@H]3[C@H](N(C)C)C(O)=C(C(N)=O)C(=O)[C@@]3(O)C(O)=C1C2=O`, the MIC in assay [1] (setting [5]) and in assay [2] (setting [6]) was greater than 4 µg/mL throughout.

`CN(C)[C@@H]1C(O)=C(C(N)=O)C(=O)[C@@]2(O)C(O)=C3C(=O)c4c(ccc(NC5CCN(Cc6ccccc6)CC5)c4O)C[C@H]3C[C@@H]12`: the MIC in assay [1] (setting [5]) and in assay [2] (setting [6]) was greater than 4 µg/mL each time.
